Data from ChEMBL document CHEMBL1201862, “PubChem BioAssay data set” (2004).
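48-hour exposure; five concentrations; linearly interpolated endpoints. Here, GI50 denotes the concentration required for 50% inhibition of growth.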 Calls of active or inactive are those of the source. Cut-off read from the data, not from the text of the source: active = GI50 up to about 1.1 µM and inactive = higher.

Experiments:
Assay in all cases: growth of human tumour cells (NCI), 48 h
RXF 393 = tested on: RXF 393
SK-MEL-28 = tested on: SK-MEL-28
A549 = tested on: A549
M14 = tested on: M14
K562 = tested on: K562
UACC-257 = tested on: UACC-257
OVCAR-3 = tested on: OVCAR-3
M19-MEL = tested on: M19-MEL
HL-60 = tested on: HL-60
LXFL 529 = tested on: LXFL 529
SK-OV-3 = tested on: SK-OV-3
SNB-78 = tested on: SNB-78
SR = tested on: SR
786-0 = tested on: 786-0
MOLT-4 = tested on: MOLT-4
U-251 = tested on: U-251
RXF 631 = tested on: RXF 631
OVCAR-4 = tested on: OVCAR-4
KM-20L2 = tested on: KM-20L2
LOX IMVI = tested on: LOX IMVI
DLD-1 = tested on: DLD-1
NCI-H522 = tested on: NCI-H522
OVCAR-8 = tested on: OVCAR-8
TK-10 = tested on: TK-10
DMS-114 = tested on: DMS-114
CCRF-CEM = tested on: CCRF-CEM
HOP-92 = tested on: HOP-92
SK-MEL-2 = tested on: SK-MEL-2
A498 = tested on: A498
KM12 = tested on: KM12
EKVX = tested on: EKVX
SK-MEL-5 = tested on: SK-MEL-5
SF-295 = tested on: SF-295
SW-620 = tested on: SW-620
UO-31 = tested on: UO-31
UACC-62 = tested on: UACC-62
DMS-273 = tested on: DMS-273
CAKI-1 = tested on: CAKI-1
HOP-62 = tested on: HOP-62
HCT-15 = tested on: HCT-15
SF-268 = tested on: SF-268
SNB-19 = tested on: SNB-19
NCI-H460 = tested on: NCI-H460
NCI-H23 = tested on: NCI-H23
SNB-75 = tested on: SNB-75
ACHN = tested on: ACHN
COLO 205 = tested on: COLO 205
RPMI-8226 = tested on: RPMI-8226
XF498 = tested on: XF498
HCT-116 = tested on: HCT-116
OVCAR-5 = tested on: OVCAR-5
SF-539 = tested on: SF-539
IGROV-1 = tested on: IGROV-1
HOP-18 = tested on: HOP-18
NCI-H226 = tested on: NCI-H226
HT-29 = tested on: HT-29
Malme-3M = tested on: Malme-3M
HCC 2998 = tested on: HCC 2998
SN12C = tested on: SN12C

Measured: GI50

OCCN(CCO)c1cccc(N(CCO)CCO)c1
> 100 µM: HCT-15
inactive: RXF 393 > 100 µM | SK-MEL-28 > 100 µM | A549 > 100 µM | M14 > 100 µM | K562 > 100 µM | UACC-257 > 100 µM | OVCAR-3 > 100 µM | M19-MEL > 100 µM | HL-60 > 100 µM | LXFL 529 > 100 µM | SK-OV-3 > 100 µM | SNB-78 > 100 µM | SR > 100 µM | 786-0 > 100 µM | MOLT-4 > 100 µM | U-251 > 100 µM | RXF 631 > 100 µM | OVCAR-4 > 100 µM | KM-20L2 38.5 µM | LOX IMVI > 100 µM | DLD-1 > 100 µM | NCI-H522 > 100 µM | OVCAR-8 > 100 µM | TK-10 > 100 µM | DMS-114 > 100 µM | CCRF-CEM > 100 µM | HOP-92 > 100 µM | SK-MEL-2 > 100 µM | A498 > 100 µM | KM12 > 100 µM | EKVX > 100 µM | SK-MEL-5 > 100 µM | SF-295 > 100 µM | SW-620 > 100 µM | UO-31 28.6 µM | UACC-62 72.8 µM | DMS-273 > 100 µM | CAKI-1 > 100 µM | HOP-62 > 100 µM | SF-268 > 100 µM | SNB-19 39.2 µM | NCI-H460 > 100 µM | NCI-H23 > 100 µM | SNB-75 > 100 µM | ACHN > 100 µM | COLO 205 > 100 µM | RPMI-8226 > 100 µM | XF498 > 100 µM | HCT-116 > 100 µM

CN(C)CCNC(=O)c1c2ccccc2cc2ccccc12
36 µM: HCT-15
inactive: RXF 393 25.3 µM | SK-MEL-28 25.5 µM | A549 34.6 µM | M14 16.7 µM | K562 23.2 µM | UACC-257 18.5 µM | OVCAR-5 50.9 µM | SF-539 32.7 µM | OVCAR-3 93.8 µM | M19-MEL 33.2 µM | HL-60 25.4 µM | LXFL 529 26.2 µM | SK-OV-3 > 100 µM | SNB-78 55.3 µM | 786-0 57 µM | MOLT-4 3.99 µM | U-251 41.3 µM | IGROV-1 41 µM | OVCAR-4 31 µM | HOP-18 > 100 µM | KM-20L2 37.7 µM | LOX IMVI 13.5 µM | DLD-1 41.8 µM | OVCAR-8 38.1 µM | TK-10 30.5 µM | NCI-H226 12 µM | DMS-114 53.1 µM | CCRF-CEM 31.1 µM | HOP-92 60.4 µM | HT-29 39.1 µM | SK-MEL-2 8 µM | A498 31.5 µM | KM12 42.8 µM | EKVX > 100 µM | SK-MEL-5 16.9 µM | SF-295 61.2 µM | SW-620 34.4 µM | UO-31 26.2 µM | UACC-62 20 µM | DMS-273 33 µM | HOP-62 55.7 µM | Malme-3M 34.1 µM | SF-268 44.7 µM | SNB-19 > 100 µM | HCC 2998 32.7 µM | NCI-H460 18.1 µM | SN12C 34.4 µM | NCI-H23 41.4 µM | SNB-75 42.9 µM | ACHN 32.4 µM | COLO 205 18.2 µM | RPMI-8226 17.5 µM | XF498 19.5 µM | HCT-116 26.8 µM
active: SR 0.473 µM

Cc1ccc(NC(=O)c2nc(S)nc(N)c2-c2ccccc2C)cc1C
> 100 µM: HCT-15
inactive: RXF 393 > 100 µM | SK-MEL-28 > 100 µM | A549 > 100 µM | M14 > 100 µM | K562 > 100 µM | UACC-257 > 100 µM | OVCAR-5 > 100 µM | SF-539 > 100 µM | OVCAR-3 > 100 µM | M19-MEL > 100 µM | LXFL 529 > 100 µM | SK-OV-3 > 100 µM | SNB-78 > 100 µM | 786-0 > 100 µM | MOLT-4 > 100 µM | U-251 > 100 µM | IGROV-1 > 100 µM | OVCAR-4 > 10 µM | HOP-18 > 100 µM | KM-20L2 > 100 µM | LOX IMVI > 100 µM | DLD-1 > 100 µM | NCI-H522 > 100 µM | OVCAR-8 > 100 µM | TK-10 > 100 µM | NCI-H226 > 100 µM | DMS-114 > 100 µM | CCRF-CEM > 100 µM | HOP-92 > 100 µM | HT-29 > 100 µM | SK-MEL-2 > 100 µM | A498 > 100 µM | KM12 > 100 µM | EKVX > 100 µM | SK-MEL-5 > 100 µM | SW-620 > 100 µM | UO-31 > 100 µM | UACC-62 > 100 µM | DMS-273 > 100 µM | CAKI-1 > 100 µM | Malme-3M > 100 µM | SF-268 > 100 µM | SNB-19 > 100 µM | NCI-H460 > 100 µM | SN12C > 100 µM | NCI-H23 > 100 µM | SNB-75 > 100 µM | ACHN > 100 µM | COLO 205 > 100 µM | RPMI-8226 > 100 µM | XF498 > 100 µM | HCT-116 > 100 µM
